Laboratory results published in patent publication US20230039917A1, “EXO-AZA SPIRO INHIBITORS OF MENIN-MLL INTERACTION” (Janssen Pharmaceutica NV, priority 2017, published 2023).

Tested on: MOLM14 cells
Assay: Proliferation assay B (spheroid assay) MOLM14
Format: cell-based, human
Settings: Homo sapiens, MOLM-14, 192 h, confluence at day 8, read-out: (3b) Spheroid assay MOLM14 (IC50(μM)) Assay B
Experimental: 3b) Proliferation Assay B
(§1) The anti-proliferative effect of menin/MLL protein/protein interaction inhibitor test compounds was assessed in human leukemia cell lines. The cell lines MV-4-11 and MOLM14 harbor MLL translocations and express the MLL fusion proteins MLL-AF4 and MLL-AF9, respectively, as well as the wildtype protein from the second allele. […] K562 was used as a control cell line containing two MLL wildtype alleles in order to exclude compounds that display general cytotoxic effects.
(§2) MV-4-11 and MOLM14 were cultured in RPMI-1640 (Sigma Aldrich) supplemented with 10% fetal bovine serum (HyClone), 2 mM L-glutamine (Sigma Aldrich) and 50 μg/ml gentamycin (Gibco). K562 were propagated in RPMI-1640 (Sigma Aldrich) supplemented with 20% fetal bovine serum (HyClone), 2 mM L-glutamine (Sigma Aldrich) and 50 μg/ml gentamycin (Gibco).
(§3) In order to assess the anti-proliferative effects, 1,500 MV-4-11, 300 MOLM14 cells or 750 K562 cells were seeded in 200 μl media per well in 96-well round bottom, ultra-low attachment plates (Costar, catalogue number 7007). Cell seeding numbers were chosen based on growth curves to ensure linear growth throughout the experiment. Test compounds were added at different concentrations and the DMSO content was normalized to 0.3%. Cells were incubated for 8 d at 37° C. and 5% CO2. Spheroid like growth was measured in real-time by live-cell imaging (IncuCyteZOOM, Essenbio, 4× objective) acquiring images at day 8. Confluence (%) as a measure of spheroid size was determined using an integrated analysis tool.
In order to determine the effect of the test compounds over time, the confluence in each well as a measure of spheroid size, was calculated. Confluence […] at the beginning of the experiment (t=0) was used as baseline for the calculation.
Absolute IC50 values were calculated as percent change in confluence as follows:
LC=Low Control: cells treated with 1 μM of the cytotoxic agent staurosporin
HC=High Control: Mean confluence (%) (DMSO treated cells)
Effect=100−(100*(Sample−LC)/(HC−LC))
To determine the IC50 a curve is fitted to the plot of % Effect vs Log 10 compound concentration using a sigmoidal fit with a variable slope and fixing the maximum to 100% and the minimum to 0%.

| SMILES | IC50 |
| --- | --- |
| CN1CCN(Cc2cc(NC3CC4(CCN(c5ncnc6sc(CC(F)(F)F)cc56)C4)C3)ccc2C#N)CC1 (mixture of isomers) [Compound 225] | 1.95 µM |
| CNC(=O)c1ccc(NC2CC3(CCN(c4ncnc5sc(CC(F)(F)F)cc45)C3)C2)cc1NCCN(C)C (mixture of isomers) [Compound 239] | > 3.75 µM |
| CN1CCN(c2cc(NC3CC4(CCN(c5ncnc6sc(CC(F)(F)F)cc56)C4)C3)ccc2C#N)CC1 (mixture of isomers) [Compound 240] | 1.14 µM |
| CNC(=O)c1ccc(NC2CC3(CCN(c4ncnc5sc(CC(F)(F)F)cc45)C3)C2)c(Cl)c1 (single isomer, unassigned) [Compound 68] | 2.24 µM |
| CN(C)CCNC(=O)c1ccc(NC2CC3(CCN(c4ncnc5sc(CC(F)(F)F)cc45)C3)C2)cc1 (single isomer, unassigned) [Compound 74] | > 3.75 µM |
| Nc1nc(N2CCC3(CC(Nc4ccc5oc(=O)[nH]c5c4)C3)C2)c2cc(CC(F)(F)F)sc2n1 (stereo not shown) [Compound 380] | > 3.75 µM |

Same assay, conditions: confluence at day 8, read-out: (3b) Spheroid assay MOLM14 (IC50(μM)) Assay B

| SMILES | IC50 |
| --- | --- |
| CS(=O)(=O)N1CCN(C(=O)c2ccc(NC3CC4(CCN(c5ncnc6sc(CC(F)(F)F)cc56)C4)C3)cc2)CC1 (single isomer, unassigned) [Compound 179] | > 3.75 µM |
| COC1CCN(C(=O)c2ccc(NC3CC4(CCN(c5ncnc6sc(CC(F)(F)F)cc56)C4)C3)cc2)CC1 (single isomer, unassigned) [Compound 184] | > 3.75 µM |
| CNC(=O)c1ccc(NC2CC3(CCN(c4ncnc5sc(CC(F)(F)F)cc45)C3)C2)cc1C1CCN(C)CC1 (single isomer, unassigned) [Compound 231] | > 3.75 µM |
| CN1CCC(c2cc(NC3CC4(CCN(c5ncnc6sc(CC(F)(F)F)cc56)C4)C3)ccc2C(=O)N2CCOCC2)CC1 (single isomer, unassigned) [Compound 233] | > 3.75 µM |
| CNC(=O)c1c(F)cc(NC2CC3(CCN(c4ncnc5sc(CC(F)(F)F)cc45)C3)C2)cc1F (single isomer, unassigned) [Compound 244] | > 3.75 µM |
| O=C(c1cnc(NC2CC3(CCN(c4ncnc5sc(CC(F)(F)F)cc45)C3)C2)nc1)N1CCOCC1 (single isomer, unassigned) [Compound 259] | > 3.75 µM |

Molecular target: T1, menin.FITC-MBM1 complex (terbium chelate-labeled menin) (Homo sapiens, UniProt O00255, F410E/T541A)
T1 construct: Menin (a.a. 1-610-6×his tag) was labeled with terbium cryptate as follows
T1 sequence (O00255 with tags, fused parts or gaps F410E/T541A): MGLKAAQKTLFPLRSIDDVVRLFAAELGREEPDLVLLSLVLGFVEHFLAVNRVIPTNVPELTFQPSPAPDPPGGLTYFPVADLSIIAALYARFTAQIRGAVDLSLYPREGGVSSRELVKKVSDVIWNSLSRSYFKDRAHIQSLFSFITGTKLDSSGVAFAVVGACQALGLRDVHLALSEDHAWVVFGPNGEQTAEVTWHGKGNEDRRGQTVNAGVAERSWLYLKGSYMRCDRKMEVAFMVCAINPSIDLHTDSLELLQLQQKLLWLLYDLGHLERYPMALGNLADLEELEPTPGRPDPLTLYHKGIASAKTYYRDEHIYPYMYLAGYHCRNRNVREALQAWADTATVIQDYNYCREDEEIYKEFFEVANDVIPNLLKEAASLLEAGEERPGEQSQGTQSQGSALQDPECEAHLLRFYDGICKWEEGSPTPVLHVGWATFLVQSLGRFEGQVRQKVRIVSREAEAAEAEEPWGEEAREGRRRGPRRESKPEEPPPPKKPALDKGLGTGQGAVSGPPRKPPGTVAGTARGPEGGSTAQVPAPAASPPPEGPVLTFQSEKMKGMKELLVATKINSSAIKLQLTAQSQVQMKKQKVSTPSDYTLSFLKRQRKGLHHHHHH
Assay: Menin/MLL homogenous time-resolved fluorescence (HTRF) assay
Format: binding
Settings: location 1; read-out: (2) location 1 Menin HTRF assay (IC50 (nM))
Experimental: 2) Menin/MLL Homogenous Time-Resolved Fluorescence (HTRF) Assay
To an untreated, white 384-well microtiter plate was added 40 nL 200× test compound in DMSO and 4 μL 2× terbium chelate-labeled menin (vide infra for preparation) in assay buffer (40 mM Tris.HCl, pH 7.5, 50 mM NaCl, 1 mM DTT and 0.05% Plutonic F-127). After incubation of test compound and terbium chelate-labeled menin for 5 min at ambient temperature, 4 μL2× FITC-MBM1 peptide (FITC-β-alanine-[…]-NH2) in assay buffer was added, the microtiter plate centrifuged at 1000 rpm for 1 min and the assay mixtures incubated for 15 min at ambient temperature. The relative amount of menin.FITC-MBM1 complex present in an assay mixture is determined by measuring the homogenous time-resolved fluorescence (HTRF) of the terbium/FITC donor/acceptor fluorphore pair using a BMG Pherastar plate reader (ex. 337 nm/terbium em. 490 nm/FITC em. 520 nm) at ambient temperature. The degree of fluorescence resonance energy transfer (the HTRF value) is expressed as the ratio of the fluorescence emission intensities of the FITC and terbium fluorophores (F^em 520 nm/F^em 490 nm). The final concentrations of reagents in the binding assay are 100 pM terbium chelate-labeled menin (location 1) or 600 pM terbium chelate-labeled menin (location 2), 75 nM FITC-MBM1 peptide and 0.5% DMSO in assay buffer. Dose-response titrations of test compounds are conducted using an 11 point, three-fold serial dilution scheme, starting typically at 25 μM (location 1) or starting typically at 10 μM (location 2).
Compound potencies were determined by first calculating % inhibition at each compound concentration according to equation 1:
% inhibition=((HC−LC)−(HTRF^compound−LC))/(HC−LC))*100 (Eqn 1)
Where LC and HC are the HTRF values of the assay in the presence or absence of a saturating concentration of a compound that competes with FITC-MBM1 for binding to menin, and HTRF^compound is the measured HTRF value in the presence of the test compound. HC and LC HTRF values represent an average of at least 16 replicates per plate.
% inhibition=Bottom+(Top−Bottom)/(1+10^((log IC50−log [cmpd])*h)) (Eqn 2)
Where Bottom and Top are the lower and upper asymptotes of the dose-response curve, respectively, IC50 is the concentration of compound that yields 50% inhibition of signal and h is the Hill coefficient.
Preparation of Terbium cryptate labeling of Menin: Menin (a.a. 1-610-6×his tag) was labeled with terbium cryptate as follows. 2 mg of Menin was buffer exchanged into 1× phosphate buffered saline. 16 uM Menin was incubated with 4-fold molar excess NHS-terbium cryptate (Cisbio Bioassays, Bedford, Mass.) for 2 hours at room temperature. The labeled protein was purified away from free label by running the reaction over a Superdex 200 Increase 10/300 GL column at 0.75 ml/min. Peak fractions were collected, aliquoted and frozen at −80° C.

| SMILES | IC50 |
| --- | --- |
| CC(C)CNC1CC2(CCN(c3ncnc4sc(CC(F)(F)F)cc34)C2)C1 (stereo not shown) [Compound 50] | 95.8 nM |

Same assay, conditions: location 2; read-out: (2) location 2 Menin HTRF assay (IC50 (nM))

| SMILES | IC50 |
| --- | --- |
| CNC(=O)c1ccc(N[C@@H]2CC[C@]3(CCN(c4ncnc5sc(CC(F)(F)F)cc45)C3)C2)cc1 (racemic) [Compound 136] | 40.9 nM |
| O=c1[nH]c2ccc(CN[C@@H]3CCC4(C3)CN(c3ncnc5sc(CC(F)(F)F)cc35)C4)cc2o1 (single isomer, unassigned) [Compound 55] | 2 nM |
| CNC(=O)c1ccc(NC2CC3(CCN(c4ncnc5sc(CC(F)(F)F)cc45)C3)C2)c(Cl)c1 (single isomer, unassigned) [Compound 69] | 1.2 nM |
| N#Cc1ccc(NC2CC3(CCN(c4ncnc5sc(CC(F)(F)F)cc45)C3)C2)nc1 (single isomer, unassigned) [Compound 174] | 114 nM |
| O=S(=O)(NC1CC2(CCN(c3ncnc4sc(CC(F)(F)F)cc34)C2)C1)c1ccccc1 (stereo not shown) [Compound 23] | 1310 nM |
| FC(F)(F)Cc1cc2c(N3CC4(CCC(Nc5ccc(-c6cn[nH]c6)cc5)C4)C3)ncnc2s1 (stereo not shown) [Compound 302] | 50.9 nM |
| CNS(=O)(=O)c1ccc(NC2CC3(CCN(c4ncnc5sc(CC(F)(F)F)cc45)C3)C2)cc1 (stereo not shown) [Compound 317] | 143 nM |
| O=c1[nH]c2ccc(NC3CC4(CCN(c5ncnc6sc(CC(F)(F)F)cc56)C4)C3)cc2[nH]1 (stereo not shown) [Compound 321] | 91.5 nM |
| Nc1nc(N2CCC3(CC(Nc4ccc5oc(=O)[nH]c5c4)C3)C2)c2cc(CC(F)(F)F)sc2n1 (stereo not shown) [Compound 380] | 8.7 nM |

Tested on: MV-4-11 cells
Assay: Proliferation assay A (spheroid assay) MV-4-11
Format: cell-based
Settings: Homo sapiens, MV4-11, 192 h, 8 d, AUC of confluence against time, absolute IC50, read-out: (3a) Spheroid assay MV-4-11 (IC50(μM)) Assay A
Experimental: 3a) Proliferation Assay A
as §1, §2
as §3, with “MOLM14” for “MOLM14 cells”, “monitored” for “measured”, “one image every four hours for 8 d.” for “images at day 8.”
In order to determine the cumulative effect of the test compounds over time, the area under the curve (AUC) in a plot of confluence against time was calculated. Confluence at the beginning of the experiment (t=0) was used as baseline for the AUC calculation.
Absolute IC50 values were calculated according to the following procedure:
% Control=(AUC sample/AUC control)*100
AUC control=mean AUC of control values (cells without compound/DMSO as vehicle control)
A non-linear curve fit was applied using the least squares (ordinary) fit method to the plot of % control versus compound concentration. Based on this, the absolute IC50 value (half maximal inhibitory concentration of the test compound causing an anti-proliferative effect of 50% relative to the vehicle control) was calculated.

| SMILES | IC50 |
| --- | --- |
| FC(F)(F)Cc1cc2c(N3CC[C@]4(CC[C@H](NCc5ccccc5)C4)C3)ncnc2s1 (single isomer, unassigned) [Compound 4] | 0.5 µM |
| FC(F)(F)Cc1cc2c(N3CC[C@@]4(CC[C@H](NCc5ccccc5)C4)C3)ncnc2s1 (single isomer, unassigned) [Compound 6] | 1.12 µM |
| CC(C)CNC1CC2(CCN(c3ncnc4sc(CC(F)(F)F)cc34)C2)C1 (stereo not shown) [Compound 50] | 0.91 µM |
